Source: patent US20200138764A1, “METHODS AND DEVICES FOR ACTIVATING ADIPOSE TISSUE” (The Procter & Gamble Company, priority 2018, published 2020)

target: human TRPM8; assay: TRPM8 Protocol-FLIPR Assay (intracellular Ca2+); assay type: cell-based; conditions: HEK-293 cells stably transfected with human TRPM8, Fluo-4 AM, relative to benchmark agonist WS-5
Protocol: To determine whether TRPM8 is activated, the intracellular calcium ion (Ca^2+) level was measured from transfected cells with the TRPM8 receptor sequence (SEQ ID NO: 1). HEK-293 (human embryonic kidney) cells stably transfected with human TRPM8 were grown in 15 mL growth medium (high glucose DMEM (Dulbecco's Modification of Eagle's Medium) supplemented with 10% FBS (fetal bovine serum), 100 μg/mL penicillin/streptomycin, 5 μg/mL blasticindin, and 100 μg/mL zeocin) in a 75 cm^2 flask for 3 days at 37° C. in a mammalian cell culture incubator (Forma Scientific Model 3110, Marietta, Ohio) set at 5% CO2. Cells were detached with addition of 2 mL of trypsin-EDTA buffer (GIBCO® 25200, Invitrogen, Grand Island, N.Y.) for about 2-3 min. Trypsin was inactivated by addition of 8 mL growth medium. Cells were transferred to a 50 mL tube and centrifuged at 850 rpm for 3 minutes to remove medium. After centrifugation, a pellet of cells was formed in the bottom of the tube separating them from the supernatant solution. The supernatant was discarded and the cell pellet was suspended in 1 mL of fresh growth medium to which 5 μL (12.5 μg) of Fluo-4 AM (Molecular Probes, Inc., Eugene, Oreg.) calcium indicator was added and incubated for 30 min with gentle shaking. Fluo-4 AM is a fluorescent dye used for quantifying cellular Ca^2+ concentrations in the 100 nM to 1 μM range. At the end of 30 minutes, 45 mL of assay buffer (1×HBSS (Hank's Balanced Salt Solution), 20 mM HEPES (4-(2-Hydroxyethyl)-1-piperazineethanesulfonic acid)) was added to wash cells and the resulting mixture was then centrifuged at 850 rpm for 3 minutes at 20° C. to remove excess buffer and Fluo-4 AM calcium indicator.
The pelleted cells were re-suspended in 10 mL assay buffer and 90 μL aliquots (˜50,000 cells) per well delivered to a 96-well assay plate containing 10 μL of test compounds (1 mM in assay buffer, final concentration 100 μM) or buffer control and incubated at room temperature for 30 minutes. After 30 minutes, a plate (Falcon 353219, Corning Corning N.Y.) was placed into a fluorometric imaging plate reader (FLIPR384 from Molecular Devices, Sunnyvale, Calif.) and basal fluorescence recorded (excitation wave length 488 nm and emission wave length 510 nm). Then 20 μL of 100 mM of TRPM8 agonist WS5 coolant in the assay buffer was added and fluorescence recorded. For determining the direct effect of test compounds on TRPM8, fluorescence was measured immediately after addition of each compound (TABLE 1). Additional discussion of the FLIPR method can be found in Smart et al., Characterization using FLIPR of human vanilloid VR1 receptor pharmacology, European Journal of Pharmacology 417, 51-58 (2001) and Liu et al., Development and validation of a platelet calcium flux assay using a fluorescent imaging plate reader, Analytical Biochemistry 357, 216-224 (2006).
The magnitude of the fluorescence of the active-treated cells was compared to the magnitude of the fluorescence from a benchmark agonist (WS-5), as described above. The percentage of fluorescence as a function of active dose was plotted and a sigmoidal curve was generated. Curve fitting from this dose-response curve yielded the value for TRPM8 IC50 in nM.
TRPM8 activation was determined by measuring intracellular calcium ion (Ca^2+) level from transfected cells with the TRPM8 receptor gene, as described in EXAMPLE 1, the results of which are shown in TABLE 1. IC50 values are provided in column 3 of TABLE 1, which measured the concentration of activating compound needed to reduce intracellular [Ca^2+] by 50%. […]

| IC50 | SMILES |
| --- | --- |
| 7000 nM | CC1CCC(C(C)C)C(O)C1 (stereo not drawn) [Menthol] |
| 2 nM | CC(C)[C@@H]1CC[C@@H](C)C[C@H]1C(=O)NC[C@@H](NC(=O)[C@H](C)N)c1ccccc1 [Formula III] |
| 2000 nM | CCOC(=O)CNC(=O)[C@@H]1C[C@H](C)CC[C@H]1C(C)C [WS-5] |
